Laboratory results reported in US20240287081A1, “PERFLUOROALKANE SUBSTITUTED PYRAZOLO[3,4-D]PYRIMIDIN AND PYRROLO[2,3-D]PYRIMIDIN COMPOUNDS AND USES THEREOF” (ICAHN SCHOOL OF MEDICINE AT MOUNT SINAI, priority 2021, published 2024).

How the values were obtained:
[1] = system: AKSP CRC tumoroid line; assay: 3D CRC tumoroid viability, AKSP model; type: cell-based, mice; settings: at 5.0 μM, viability after 72 hours
Experimental: To model different stages of colorectal cancer (CRC), intestinal organoids were derived from genetically engineered mice with the following genotypes Apc^flx/flx (A) and Apc^flx/flx Kra^LSL-G12D Smad4^flx/flx (AKS) and transformed ex vivo by addition of 100 nM 4-OHT for 24 hours. Once the organoids acquired a spheroid morphology characteristic of CRC Tumoroids, trp53 was knocked out in AKS tumoroids using CRISPR-CAS9 technology to generate the AKSP line. CRC tumoroid lines as well as wild type intestinal organoids were seeded onto Matrigel in 96 well plates in triplicates 16 hours before being treated with the indicated compounds at a final concentration of 0.5 μM. 72 hours later, cell viability was assessed using Titerglo® assay. Results of 3D CRC organoid line data for pyrazolo- and pyrrolopyrimidine compounds at 0.5 μm were obtained (FIGS. 25A-G). […] In the AKSP model, at 5.0 μM, the top ten compounds were: APS-8-35-3, APS-8-35-4, APS-6-87, APS-9-3, AD80, APS-8-85-2, APS-8-51-3, APS-9-2, and APS-8-56-4.

[2] = system: HCC tumor organoids, BC (B-Catenin); assay: 3D HCC tumor organoid viability, BC model; type: cell-based; settings: 5.0 μM, viability three days post drug administration
Experimental: (§1) For assays in HCC tumor organoids, 96 well plates were first coated with a 50:50 solution of basal media:Matrigel ([…]), which polymerized for 15 minutes at 37° C. Tumor organoids were taken out of Matrigel, broken, and washed. Tumor organoids were seeded at 1,000 cells per well and were treated the following day with single doses of drugs in technical triplicate. Final DMSO concentrations were kept below 0.5%. Cell viability was measured three days post drug administration with either luminescence from CellTiter-Glo or absorbance at 560 and 590 nm from resazurin. Viability data was analyzed by normalizing individual drug-treated well values to DMSO-treated wells (BC=B-Catenin; SR=sorafenib resistant). Results of 3D HCC cell line data for pyrazolo- and pyrrolopyrimidine compounds at 0.5 μm (FIGS. 22A-F), 0.05 μm (FIGS. 23A-F), and 5.0 μm (FIGS. 24A-F) were obtained. […] In the BC model, at 5.0 μM, the top ten compounds were: APS-8-100-4, APS-8-52-3, APS-8-51-4, APS-7-25-2, APS-8-100-3, APS-8-51-3, APS-8-50-4, APS-8-52-4, and APS-7-38. In the SR model, at 5.0 μM, the top ten compounds were: APS-8-51-3, APS-8-50-4, APS-8-51-4, APS-8-52-3, APS-8-50-3, APS-7-52-2, APS-8-52-4, APS-7-52-1, and APS-8-100-4.

[3] = system: HCC tumor organoids, SR (sorafenib resistant); assay: 3D HCC tumor organoid viability, SR model; type: cell-based; settings: 5.0 μM, viability three days post drug administration
Experimental: as §1

[4] = system: ptc>dRet^M955T flies; assay: Fly rescue assay (Drosophila MTC model ptc>dRet^M955T); type: in vivo; settings: compound in fly food; for rescue (percent viability of adult flies, adults/pupae×100): 13 d at 25° C., baseline viability 0%
Experimental: Kinase-mutated fly stocks were obtained from Bloomington Drosophila Stock Center (BDSC; Bloomington, IN). The active mutant form of Drosophila Ret (dRet^955T) carries an M955T mutation corresponding to the M918T mutation commonly reported for multiple endocrine neoplasia (MEN) type 2B patients12,14,16,34. The ptc-gal4, UAS-GFP;UAS-dRet^M955T/SM5tub-gal80-TM6B transgenic flies were prepared according to standard protocols and crossed with non-transgenic w-flies (BDSC) to generate ptc-gal4, UAS-GFP; UAS-dRet^M955T(ptc>dRet^M955T) flies for chemical screening.
All drugs were synthesized in-house. All compounds were dissolved in DMSO (Sigma-Aldrich; St. Louis, MO) and mixed with semi-defined fly medium (BDSC) to make drug food (0.1% final DMSO concentration). For drug screening, ptc>dRet^M955T embryos were raised until adulthood on drug food for 13 d at 25° C. The number of empty pupal cases (i.e., adults) ? that of total pupal cases (P) to determine % viability. Fly randomization was used throughout the assays.
In this model, compounds are assessed based on their ability to suppress oncogenic Ret^M955T-induced tumors, which can be quantified as ‘rescue’ from lethality. […] The baseline viability of ptc>Ret^1955T flies was calibrated to zero, which creates a high bar for rescue but also reduces false-positive hits. Hundreds of flies are tested per condition (typical n values are […] administered through fly food.

[5] = system: RET (WT and M918T); assay: NanoBRET cell based target engagement assay; settings: RET-Nluc in HEK 293T cells; for cellular IC50 against RET, ranking in words: pyrazolo- and pyrrolopyrimidine series
Experimental: Assays were completed in duplicate. […] FIG. 8D is a graph of the cell-based target engagement for the indicated compounds against wild-type and M918T RET. IC50 values were determined based on 8-point titration curves of free ligand. Competition assays were completed in technical triplicate against full-length human RET-Nluc expressed in 293T cells, complexed with an active-site fluorescent tracer.
In this assay, a bioluminescence resonance energy transfer (BRET) signal is generated between nanoLuciferase tagged RET (expressed in HEK 293T cells) and an active-site based fluorescent tracer. […] Using this assay, in vivo binding was determined for a series of compounds against mutant (M918T) and wild-type RET (FIG. 8D).

[6] = target: T1, wild-type RET kinase domain (Homo sapiens, UniProt P07949); assay: Wild-type RET Kd, bead based competition assay (KINOMEscan, DiscoverX); type: binding; settings: recombinant human wild-type RET kinase domain, average of two replicates; read-out: Kd towards wild-type RET
T1 construct: determined against recombinant-human, wild-type RET kinase domain; phage display fusion (kinase expressed on phage); purchased DiscoverX (Fremont, CA); host or cells: phage
T1 sequence (P07949 724-1016 limits assumed): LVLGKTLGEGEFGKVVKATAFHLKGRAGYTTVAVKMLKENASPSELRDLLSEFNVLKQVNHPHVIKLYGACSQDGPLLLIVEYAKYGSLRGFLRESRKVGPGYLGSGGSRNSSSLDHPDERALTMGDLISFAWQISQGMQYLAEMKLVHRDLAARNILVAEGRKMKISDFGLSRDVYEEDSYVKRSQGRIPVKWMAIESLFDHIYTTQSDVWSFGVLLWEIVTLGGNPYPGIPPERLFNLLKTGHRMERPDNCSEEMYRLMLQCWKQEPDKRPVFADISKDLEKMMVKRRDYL
Experimental: Wild-type RET Kd values were determined by DiscoverX (Fremont, CA) using a bead based competition assay (KINOMEscan). In brief, kinases are expressed on phage and immobilized on beads via active site-directed ligands. Test compounds are premixed with kinases and assayed for the ability to compete for immobilized ligands. Binding constants are calculated with a standard dose-response curve and the Hill equation, with Hill slope set to −1. […] Kd values are the average of two experimental replicates.
To assess if the differences in activity between R^F- and R^H-analogs were related to alterations in target engagement, representative analogs for binding on wild-type RET were compared. For this KD values of compounds 40 (para-C2F5) and 50 (para-C2H5) were determined against recombinant-human, wild-type RET kinase domain.

[7] = system: panel of 468 purified human kinases; assay: In vitro kinase percent inhibition, panel of 468 kinases (DiscoverX); type: binding; settings: 1 μM; for binding profile / selectivity across the kinome, in words: panel of 468 kinases
Experimental: Compounds were assayed against a panel of 468 purified human kinases (DiscoverX) to measure percentage inhibition values and derive kinome profiles (FIGS. 3B-3C). All compounds were screened at 1 μM, using two experimental replicates to determine percent inhibition values. Detailed procedures for kinase reactions and assay formats are described at http://www.discoverx.com. Raw data sets for individual compounds were filtered based on the variance of experimental replicates (cutoff=average variance+standard deviation).

Structure (SMILES): CC(C)n1cc(-c2ccc(NC(=O)Nc3cccc(C(F)(C(F)(F)F)C(F)(F)C(F)(F)F)c3)cc2)c2c(N)ncnc21 (stereo not drawn) [APS-8-56-4, 1-(4-(4-Amino-7-isopropyl-7H-pyrrolo[2,3-d]pyrimidin-5-yl)phenyl)-3-(3-(perfluorobutan-2-yl)phenyl)urea]
- ranking by inhibition of cell proliferation, AKSP model [1]: top ten

Structure (SMILES): CC(C)n1nc(-c2ccc(NC(=O)Nc3ccc(C(F)(F)C(F)(F)C(F)(F)F)cc3)cc2)c2c(N)ncnc21 [APS-8-51-3, 1-(4-(4-Amino-1-isopropyl-1H-pyrazolo[3,4-d]pyrimidin-3-yl)phenyl)-3-(4-(perfluoropropyl)phenyl)urea]
- ranking by inhibition of cell proliferation, AKSP model [1]: top ten
- ranking by inhibition of cell proliferation, BC model [2]: top ten
- ranking by inhibition of cell proliferation, SR model [3]: top ten

Structure (SMILES): CC(C)n1cc(-c2ccc(NC(=O)Nc3ccc(C(F)(F)C(F)(F)F)cc3)cc2)c2c(N)ncnc21 [APS-8-100-4, 1-(4-(4-Amino-7-isopropyl-7H-pyrrolo[2,3-d]pyrimidin-5-yl)phenyl)-3-(4-(perfluoroethyl)phenyl)urea]
- ranking by inhibition of cell proliferation, BC model [2]: top ten
- ranking by inhibition of cell proliferation, SR model [3]: top ten
- rescue activity in the fly model, in words [4]: exceptional in vivo activity
- rescue (percent viability of adult flies, adults/pupae×100) [4]: 100%
- cellular IC50 against RET, ranking in words [5]: lowest IC50 values among the para-substituted compounds tested

Structure (SMILES): CC(C)n1cc(-c2ccc(NC(=O)Nc3cccc(C(F)(F)F)c3)cc2)c2c(N)ncnc21 [APS-9-2, 1-(4-(4-Amino-7-isopropyl-7H-pyrrolo[2,3-d]pyrimidin-5-yl)phenyl)-3-(3-(trifluoromethyl)phenyl)urea]
- ranking by inhibition of cell proliferation, AKSP model [1]: top ten

Structure (SMILES): CNC(=O)c1cc(Oc2ccc(NC(=O)Nc3ccc(C(F)(F)C(F)(F)C(F)(F)C(F)(F)F)cc3)c(F)c2)ccn1 [APS-8-52-2]
- Kd [6]: 100 nM

Structure (SMILES): CC(C)n1cc(-c2ccc(NC(=O)Nc3ccc(C(F)(F)F)cc3)cc2)c2c(N)ncnc21 [APS-8-85-2, 1-(4-(4-Amino-7-isopropyl-7H-pyrrolo[2,3-d]pyrimidin-5-yl)phenyl)-3-(4-(trifluoromethyl)phenyl)urea]
- ranking by inhibition of cell proliferation, AKSP model [1]: top ten

Structure (SMILES): CC(C)n1nc(-c2ccc(NC(=O)Nc3cc(C(F)(C(F)(F)F)C(F)(F)C(F)(F)F)ccc3F)cc2)c2c(N)ncnc21 (stereo not drawn) [APS-8-35-3, 1-(4-(4-Amino-1-isopropyl-1H-pyrazolo[3,4-d]pyrimidin-3-yl)phenyl)-3-(2-fluoro-5-(perfluorobutan-2-yl)phenyl)urea]
- ranking by inhibition of cell proliferation, AKSP model [1]: top ten
- cellular IC50 against RET, ranking in words [5]: highest IC50 values

Structure (SMILES): CC(C)n1cc(-c2ccc(NC(=O)Nc3cccc(C(F)(F)C(F)(F)F)c3)cc2)c2c(N)ncnc21 [APS-9-3, 1-(4-(4-Amino-7-isopropyl-7H-pyrrolo[2,3-d]pyrimidin-5-yl)phenyl)-3-(3-(perfluoroethyl)phenyl)urea 2,2,2-trifluoroacetate]
- ranking by inhibition of cell proliferation, AKSP model [1]: top ten

Structure (SMILES): CC(C)n1cc(-c2ccc(NC(=O)Nc3cc(C(F)(C(F)(F)F)C(F)(F)C(F)(F)F)ccc3F)cc2)c2c(N)ncnc21 (stereo not drawn) [APS-8-35-4, 1-(4-(4-Amino-7-isopropyl-7H-pyrrolo[2,3-d]pyrimidin-5-yl)phenyl)-3-(2-fluoro-5-(perfluorobutan-2-yl)phenyl)urea 2,2,2-trifluoroacetate]
- ranking by inhibition of cell proliferation, AKSP model [1]: top ten

Structure (SMILES): CC(C)n1cc(-c2ccc(NC(=O)Nc3cc(C(F)(F)F)ccc3F)cc2)c2c(N)ncnc21 [APS-6-87, 1-(4-(4-Amino-7-isopropyl-7H-pyrrolo[2,3-d]pyrimidin-5-yl)phenyl)-3-(2-fluoro-5-(trifluoromethyl)phenyl)urea]
- ranking by inhibition of cell proliferation, AKSP model [1]: top ten

Structure (SMILES): CNC(=O)c1cc(Oc2ccc(NC(=O)Nc3ccc(C(F)(F)F)cc3)c(F)c2)ccn1 [APS-4-9-8]
- binding to wild-type RET and RET^M918T, in words ([7]; kinase panel): strong binding to wild-type and mutant RET^M918T
- binding profile / selectivity across the kinome, in words [7]: strong binding to a large group of kinases
- binding profile / selectivity across the kinome, in words ([7]; listed as 4-9-8): low overall selectivity
- rescue activity in the fly model, in words [4]: no fly rescue
- rescue (percent viability of adult flies, adults/pupae×100) [4]: 0%
- Kd [6]: 2.8 nM

Structure (SMILES): CC(C)n1cc(-c2ccc(NC(=O)Nc3ccc(C(F)(F)C(F)(F)C(F)(F)F)cc3)cc2)c2c(N)ncnc21.O=C(O)C(F)(F)F [APS-8-51-4, 1-(4-(4-Amino-7-isopropyl-7H-pyrrolo[2,3-d]pyrimidin-5-yl)phenyl)-3-(4-(perfluoropropyl)phenyl)urea 2,2,2-trifluoroacetate]
- ranking by inhibition of cell proliferation, BC model [2]: top ten
- ranking by inhibition of cell proliferation, SR model [3]: top ten
- rescue activity in the fly model, in words [4]: exceptional in vivo activity
- rescue (percent viability of adult flies, adults/pupae×100) [4]: 100%

Structure (SMILES): CC(C)n1nc(-c2ccc(NC(=O)Nc3cc(C(F)(F)F)ccc3F)cc2)c2c(N)ncnc21 [AD80, 1-(4-(4-amino-1-isopropyl-1H-pyrazolo[3,4-d]pyrimidin-3-yl)phenyl)-3-(2-fluoro-5-(trifluoromethyl)phenyl)urea, reference compound]
- ranking by inhibition of cell proliferation, AKSP model [1]: top ten
- rescue (percent viability of adult flies, adults/pupae×100) [4]: 80%
- cellular IC50 wild-type RET versus M918T mutant, in words [5]: slightly lower IC50 value for wild-type RET over mutant
